Test results reported in patent publication US20240366586A1, “METHODS AND AGENTS FOR MODULATING THE IMMUNE RESPONSE” (The Regents of the University of California, priority 2021, published 2024).
Counter-ions that a name gives are not always drawn.

tested on: Il12b; assay: Dual-fluorescence reporter macrophage cell line screen, lipopolysaccharide-stimulated: chromatinized Il12b-eGFP versus minimal Il12b-DsRed reporter; assay type: cell-based; conditions: additional compounds of Formulas (I)-(IV), same screening procedure
Description: We hypothesized that molecules that inhibit the “chromatinized” Il12b reporter but not the “minimal” Il12b reporter would offer a greater degree of Il12b inhibition selectivity.
We generated a dual-fluorescence reporter macrophage cell line having both a [Il12b]-[eGFP] chromatin-based construct and a [Il12b]-[DSred] plasmid vector. FIG. 3. We then stimulated an […] response in the cell line using lipopolysaccharide, an activator of Il12b expression, and tested a library of over 60,000 known and unknown (i.e., undescribed in the literature) small-molecule compounds.
Additional compounds in Formulas (I)-(IV) were screened following the same procedure as described above, with eGFP fluorescence as a readout for inhibition of IL12b.

Compound	inhibition of IL12b, eGFP fluorescence as readout
COc1cc(OC)cc(C(=O)N(Cc2ccc(F)cc2)Cc2cc3c(C)ccc(C)c3[nH]c2=O)c1 [Compound I-2, N-[(5,8-dimethyl-2-oxo-1H-quinolin-3-yl)methyl]-N-[(4-fluorophenyl)methyl]-3,5-dimethoxybenzamide]	Positive activity
O=c1cccc2n1C[C@H]1C[C@@H]2CN(Cc2ccc3ccc4cccc5ccc2c3c45)C1 [III-2, (1R,9S)-11-(pyren-1-ylmethyl)-7,11-diazatricyclo[7.3.1.0^2,7]trideca-2,4-dien-6-one]	Positive activity
CCOc1ccc2[nH]c(=O)c(CN(Cc3ccco3)C(=O)c3ccc(C(C)(C)C)cc3)cc2c1 [Compound I-3, 4-tert-butyl-N-[(6-ethoxy-2-oxo-1H-quinolin-3-yl)methyl]-N-(furan-2-ylmethyl)benzamide]	Positive activity
CCOc1ccc2[nH]c(=O)c(CN(Cc3ccco3)C(=O)c3cccs3)cc2c1 [Compound I-11, N-[(6-ethoxy-2-oxo-1H-quinolin-3-yl)methyl]-N-(furan-2-ylmethyl)thiophene-2-carboxamide]	Positive activity
CCOc1ccc2[nH]c(=O)c(CN(Cc3ccco3)C(=O)Nc3ccc(OC)cc3)cc2c1 [Compound I-5, 1-[(6-ethoxy-2-oxo-1H-quinolin-3-yl)methyl]-1-(furan-2-ylmethyl)-3-(4-methoxyphenyl)urea]	Positive activity
COc1ccc(Br)cc1/C=C/C(=O)c1ccc2c(c1)OCCO2 [IV-2, (E)-3-(5-bromo-2-methoxyphenyl)-1-(2,3-dihydro-1,4-benzodioxin-6-yl)prop-2-en-1-one]	Positive activity
O=C(N/N=C\c1ccc([N+](=O)[O-])o1)c1cccc2ccccc12 [II-6, N—[(Z)-(5-nitrofuran-2-yl)methylideneamino]naphthalene-1-carboxamide]	Positive activity
O=C(NCc1ccccc1)N(Cc1ccco1)Cc1cc2cc3c(cc2[nH]c1=O)OCO3 [Compound I-8, 3-benzyl-1-(furan-2-ylmethyl)-1-[(6-oxo-5H-[1,3]dioxolo[4,5-g]quinolin-7-yl)methyl]urea]	Positive activity
O=C(N/N=C\c1ccc([N+](=O)[O-])o1)c1ccc(-c2ccccc2)cc1 [II-3, N—[(Z)-(5-nitrofuran-2-yl)methylideneamino]-4-phenylbenzamide]	Positive activity
CCOc1ccc(C(=O)/C=C/c2cccc(OC)c2OC)cc1 [IV-5, (E)-3-(2,3-dimethoxyphenyl)-1-(4-ethoxyphenyl)prop-2-en-1-one]	Positive activity
Cc1ccc(C)c2[nH]c(=O)c(CN(Cc3ccco3)C(=S)NCc3ccco3)cc12 [Compound I-10, 1-[(5,8-dimethyl-2-oxo-1H-quinolin-3-yl)methyl]-1,3-bis(furan-2-ylmethyl)thiourea]	Positive activity
Cc1ccc(NC(=O)N(Cc2ccco2)Cc2cc3cc4c(cc3[nH]c2=O)OCCO4)cc1 [Compound I-4, 1-(furan-2-ylmethyl)-3-(4-methylphenyl)-1-[(7-oxo-3,6-dihydro-2H-[1,4]dioxino[2,3-g]quinolin-8-yl)methyl]urea]	Positive activity
COc1ccc(OC)c(/C=C/C(=O)c2ccc(C)cc2)c1 [IV-3, (E)-3-(2,5-dimethoxyphenyl)-1-(4-methylphenyl)prop-2-en-1-one]	Positive activity
O=C(CCc1ccccc1)N/N=C\c1ccc([N+](=O)[O-])s1 [II-2, N—[(Z)-(5-nitrothiophen-2-yl)methylideneamino]-3-phenylpropanamide]	Positive activity
Cc1ccc(NC(=O)N(Cc2ccco2)Cc2cc3cc4c(cc3[nH]c2=O)OCO4)cc1 [Compound I-7, 1-(furan-2-ylmethyl)-3-(4-methylphenyl)-1-[(6-oxo-5H-[1,3]dioxolo[4,5-g]quinolin-7-yl)methyl]urea]	Positive activity
COc1ccc(C(=O)/C=C/c2cccc(Cl)c2)cc1OC [IV-4, (E)-3-(3-chlorophenyl)-1-(3,4-dimethoxyphenyl)prop-2-en-1-one]	Positive activity
CCc1ccc2[nH]c(=O)c(CN(Cc3ccco3)C(=S)NCc3ccccc3)cc2c1 [Compound I-9, 3-benzyl-1-[(6-ethyl-2-oxo-1H-quinolin-3-yl)methyl]-1-(furan-2-ylmethyl)thiourea]	Positive activity
CCOc1ccc(NC(=S)N(Cc2ccco2)Cc2cc3ccc(C)cc3[nH]c2=O)cc1 [Compound I-6, 3-(4-ethoxyphenyl)-1-(furan-2-ylmethyl)-1-[(7-methyl-2-oxo-1H-quinolin-3-yl)methyl]thiourea]	Positive activity
O=C(Cc1ccc(Cl)cc1)N/N=C\c1ccc([N+](=O)[O-])o1 [II-5, 2-(4-chlorophenyl)-N—[(Z)-(5-nitrofuran-2-yl)methylideneamino]acetamide]	Positive activity
C/C(=N\NC(=O)c1cccc(Cl)c1)c1ccc([N+](=O)[O-])o1 [II-4, 3-chloro-N-[(E)-1-(5-nitrofuran-2-yl)ethylideneamino]benzamide]	Positive activity

same assay, conditions: lipopolysaccharide-stimulated dual-fluorescence reporter macrophage cell line

Compound	selective inhibition of the chromatinized Il12b reporter (eGFP) but not the minimal reporter (DsRed)
CC(=O)Nc1ccc(Br)cc1-c1ccccc1 [N-(5-bromo-2-biphenylyl)acetamide]	selective inhibitors of chromatinized Il12b
CCOc1ccc(/C=C/[N+](=O)[O-])cc1 [1-ethoxy-4-(2-nitrovinyl)benzene]	selective inhibitors of chromatinized Il12b
NC(=O)c1ccccc1/N=C/c1ccc([N+](=O)[O-])s1 [2-{[(5-nitro-2-thienyl)methylene]amino}benzamide]	selective inhibitors of chromatinized Il12b
CC[n+]1c2ccccc2nc2ccccc21 [5-ethylphenazin-5-ium ethyl sulfate]	selective inhibitors of chromatinized Il12b
O=C(/C(=C/c1cccnc1)c1nc2ccccc2[nH]1)c1ccccc1 [2-(1H-benzimidazol-2-yl)-1-phenyl-3-(3-pyridinyl)-2-propen-1-one]	selective inhibitors of chromatinized Il12b
O=c1cc(C(Cl)(Cl)Cl)oc2ccc(Cl)cc12 [6-chloro-2-(trichloromethyl)-4H-chromen-4-one]	selective inhibitors of chromatinized Il12b
Cc1cc2ncn(N=Cc3ccc([N+](=O)[O-])o3)c2cc1C [UK6, 5,6-dimethyl-N-[(5-nitro-2-furyl)methylene]-1H-benzimidazol-1-amine]	selective inhibitors of chromatinized Il12b
CCOC(=O)C(=Cc1ccc2c(c1)C(=O)CC2=O)C(=O)OCC [diethyl [(1,3-dioxo-2,3-dihydro-1H-inden-5-yl)methylene]malonate]	selective inhibitors of chromatinized Il12b
C/C(=C\c1cccc2ccccc12)[N+](=O)[O-] [1-(2-nitro-1-propen-1-yl)naphthalene]	selective inhibitors of chromatinized Il12b

tested on: Il12b; assay: RNA-Seq / ATAC-Seq of lipopolysaccharide-induced genes in treated macrophages; assay type: cell-based; conditions: RNA-Seq and ATAC-Seq analyses, macrophages
Description: Our screening experiment identified as compounds that […]. Using ATAC-Seq and RNA-Seq analyses, we confirmed that the screen indeed identified hits that work by affecting chromatin, and confirmed that β adrenergic agonists, (and in particular β2 adrenergic agonists) are indeed exquisitely selective inhibitors of Il12b gene expression.
The inhibition of Il12b by β agonists occurs upon stimulation of macrophages with other inflammatory stimuli, including CpG DNA, double stranded RNA, and imiquimod. We confirmed that the cAMP/PKA pathway, but not the exchange factor directly activated by cAMP (EPAC) pathway, was largely responsible for mediating the Il12b suppression by 0-agonists.
FIG. 7B depicts a fold change box plot in samples treated with UK17 (3-fluoro-N′-[(5-nitro-2-thienyl)methylene]benzohydrazide (CID #6895129)), classifying lipopolysaccharide-induced genes by gene-regulation cluster as previously described in Tong A. et al., A Stringent Systems Approach Uncovers Gene-Specific Mechanisms Regulating Inflammation, Cell 165 165-179 (2016). Box plots indicate the distribution of fold change values for each cluster. Red lines are drawn at 1 and −1, indicating a 2-fold up or down-regulation of genes. Il12b is labeled in red.

Compound	selective inhibition of Il12b gene expression
CCCC(=O)Nc1ncnc2c1ncn2[C@@H]1O[C@@H]2COP(=O)(O)O[C@H]2[C@H]1OC(=O)CCC [dibutyryl cyclic AMP, reference compound]	selectively inhibit IL12b expression

same assay, conditions: genes with RPKM>4 and FC>10, ranked by fold change (Max RPKM with/without compound)

Compound	rank of Il12b among the most strongly inhibited lipopolysaccharide-induced genes
Cc1cc2ncn(N=Cc3ccc([N+](=O)[O-])o3)c2cc1C [UK6, 5,6-dimethyl-N-[(5-nitro-2-furyl)methylene]-1H-benzimidazol-1-amine]	≤ 20
